Reference: patent US7781594B2, “5-(4-methanesulfonyl-phenyl)-thiazole derivatives for the treatment of acute and chronic inflammatory diseases” (Faes Farma, S.A., priority 2008, dated 2010)

Key:
Assay type in all cases: cell-based, human
[1] = system: TNF-alpha; assay: TNF-alpha production by PBMC of healthy volunteers, Cytometric Bead Array
[2] = system: TNF-alpha; assay: TNF-alpha production by PBMC from patients with rheumatoid arthritis, CBA
Protocol: CBA protocol was followed according to the manufacturer's instructions. The election of microparticles was performed following the summary of FIG. 1.
The acquisition on samples was performed with the BD FACS Array Bioanalyser System (FACSArray, Becton Dickinson, San José, Calif., USA) and the analysis of the results was completed with the software FCAP Array (Becton Dickinson) in a PC computer.
Briefly, the experimental protocol consisted of a plate pre-washing out with Wash Buffer. After decantation, the mixture of capture microparticles was re-suspended in the vortex. Standards and samples were added in the adequate dilution. […]
In another experiment, PBMC (5×10^4 cells per well) from 7 patients with rheumatoid arthritis were cultured in duplicate in 200 μl of complete medium supplemented with the highest solvent (10^−6 M), and 10^−6 M, 10^−7 M and 10^−8 M compound 12 and in the presence and absence of either LPS (10 μg/ml), or anti-CD3 (12.5 ng/ml) (Orthoclone OKT3, Orthopharmaceutical Corporation, Raritan N.J., USA)+anti-CD28 (⅓×10^5) (Clon 15E8, Menarini, Madrid, Spain), during 24 hours. Culture supernatants were frozen at −20° C. and the concentration of TNF-alpha quantified by BD FACS Array Bioanalyser by using CBA Flex Set (Becton Dickinson), specific for determining the concentration of that cytokine, following the manufacturer instructions.

[3] = system: PBMC from healthy volunteers; assay: Proliferative response of PBMC, 3H-thymidine incorporation; details: absence or presence of PHA, PHA plus IL-2, or anti-CD3 + anti-CD28, 4 days, FIGS. 11a and 11b
Protocol: Faced against a mitogen stimulation, lymphocytes suffer a blastogenesis and cellular differentiation process. The method used to quantify the cellular proliferation was the assay of the incorporation of ^3[H]-Thymidine to the DNA de novo synthesized, and the emission of betha-radiation from the cellular cultures dried extracts (to which the tritiated base was added) was detected before its ending and harvesting. In the different experiments performed to study the proliferation, the purified cellular preparations were incubated in 96 microwells plain bottom plates at concentrations of 5×10^4 cells/well (200 μl final volume), in the presence of different concentrations of various mitogens with triplicate repetitions and along 4 days of culture.
The response to a specific stimuli depended on the density and cell type studied, as well as of the culture time and of the mitogenic agent concentration. […]
PBMC was cultured during 4 days (50,000 cells per well) at 37° C. and 5% CO2 atmosphere (Cell incubator HERA Cell 150, Thermoscientific, Thermoelectron, 63505 Lagenselbold, GE) in complete culture medium. […] The DNA-incorporated radioactive was quantified by using a betha particles counter Wallac Oy.

[4] = system: CD62L in lymphocytes; assay: Shedding of CD62L in lymphocytes of PBMC, flow cytometry; details: healthy volunteers; 10^−6 M; p<0.05; FIG. 12a
Protocol: Direct immuno-fluorescence techniques of one colour with monoclonal antibodies phycoerythrin-labeled (PE) was used. PE is a fluorescent substance excitable with a 488 nm laser, which emits at 570 nm, and it is detectable and easily distinguishable by a flow cytometer. By using the antibody described in Table 1, a direct labelling was performed:
PBMC labelling: the process consisted in a labelling using 96 well V bottom plates. In each well, 5×10^4 cells are located, and afterwards centrifugated at 400×g during 5 minutes. After washing-out, cells are re-suspended and 5 μl of the corresponding monoclonal antibody are added. Cells are again re-suspended and the plate is incubated in darkness, during 20 minutes, at 4° C. Subsequently, 150 μl PBS are added and two wash-outs are performed. Finally, it is re-suspended in 150 μl PBS and collected in a cytometer tube, adding PBS up to a final volume of 0.3 ml.
For the counting, a FACSCalibur flow cytometer equipped with argon laser tuned at 488 nm was used in order to induce phycoerythrin fluorescence. The equipment, apart from the fluorescence channels, also provided information about the size (FSC) and cellular complexity (SSC).
As negative controls, the study cells with no labelling and other irrelevant labelled with monoclonal antibodies of equal isotypes than the ones used in the study (IgG1-FITC, PE y TC, IgG2a FITC, PE, TC), were used. […]

Cc1nc(OC2CCCC2)c(-c2ccc(S(C)(=O)=O)cc2)s1 [Compound 12, 4-cyclopentyloxy-5-(4-methylsulfonyl-phenyl)-2-methyl-thiazole]
Effect on TNF-alpha production by PBMC stimulated with LPS ([1]; 10^−6 M, 10^−7 M and 10^−8 M, statistically significant (p<0.05), FIG. 3): diminished TNF-alpha production | Effect on TNF-alpha secretion by PBMC, anti-CD3 and anti-CD28 stimulated or spontaneous ([1]; anti-CD3 + anti-CD28, or absence of exogenous stimuli): neither TNF-alpha secretion by PBMC stimulated with monoclonal antibodies anti-CD3 and anti-CD28 nor spontaneous one (as observed in the absence of exogenous stimuli) was modified | Effect on TNF-alpha production by PBMC, spontaneous or anti-CD3 and anti-CD28 stimulated [2]: neither inhibited the spontaneous TNF-alpha production nor the one obtained after stimulation with monoclonal antibodies anti-CD3 and anti-CD28 | Effect on TNF-alpha production in LPS-stimulated PBMC ([2]; 10^−6 M, p<0.05, FIG. 4): significantly inhibited | Effect on the proliferative response of PBMC [3]: did not significantly modify | Effect on CD62L shedding in lymphocytes [4]: increases significantly
